Results taken from patent US20230113262A1, “Peptide for cancer immunotherapy rupturing tumor-derived vesicle and use thereof” (RESEARCH & BUSINESS FOUNDATION SUNGKYUNKWAN UNIVERSITY, priority 2021, published 2023).

What was measured:
[1] = test system: melanoma cell line B16F10; assay: Cytotoxicity assay (MTT) in B16F10; type: cell-based, mouse; settings: B16F10 cells
Protocol: (§1) First, 10^4 cells of each cell line were seeded in a 96-well plate, and cultured for 24 hours. After culturing for 4 hours in a serum-free culture medium, the peptides at each concentration were injected into the wells and further incubated for 4 hours. After discarding a supernatant, 0.5 mg/ml of MTT-containing medium was treated and then left for 2 hours, formazan crystals in the cells were dissolved in each well using dimethyl sulfoxide. Then, cytotoxicity was analyzed by measuring absorbance at 570 nm using a microplate reader.

[2] = test system: fibroblast cell line NIH3T3; assay: Cytotoxicity assay (MTT) in NIH3T3; type: cell-based, mouse; settings: NIH3T3 cells
Protocol: as §1

[3] = biological target: T1, PD-L1 on tumor-derived exosomes (T-EXO) isolated from the plasma of B16F10 melanoma tumor-bearing mice (mouse, UniProt Q9EP73 19-290); assay: ELISA: T-EXO captured on PD-L1 antibody-coated plate, biotin-labeled murine PD-1 (4 ug/ml) detected with streptavidin-HRP, OD 450 nm
T1 construct: whole, on cells; also called PD-L1^EXO; exosomal PD-L1
T1 sequence (Q9EP73 19-290, one chain of several): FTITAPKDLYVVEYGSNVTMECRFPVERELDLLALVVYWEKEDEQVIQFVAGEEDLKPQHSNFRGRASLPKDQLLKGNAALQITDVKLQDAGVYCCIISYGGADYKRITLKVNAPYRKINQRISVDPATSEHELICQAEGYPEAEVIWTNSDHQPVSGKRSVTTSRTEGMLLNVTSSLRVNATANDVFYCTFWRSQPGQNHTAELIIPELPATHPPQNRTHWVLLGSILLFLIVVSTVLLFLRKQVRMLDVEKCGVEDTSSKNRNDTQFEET
Protocol: After treating the plate for 2 hours, the plate was washed with PBS-T (PBS containing 0.05% Tween-20). […] Wells were washed with PBS-T three times, and treated with horseradish peroxidase-conjugated streptavidin (100 μl per well; R&D Systems) diluted in 0.5% BSA-containing PBS for 30 minutes. After washing with PBS-T, the plate was treated with tetramethylbenzidine (R&D Systems) and the reaction was stopped by adding 0.5 N H₂SO₄.

Molecule | cytotoxicity [1] | cytotoxicity ([1]; listed as AH peptide) | cytotoxicity [2] | cytotoxicity ([2]; listed as AH peptide) | binding result [3]
CC[C@@H](C)[C@@H](NC(=O)[C@@H](Cc1c[nH]c2ccccc12)NC(=O)[C@@H](CC(=O)O)NC(=O)[C@@H](Cc1c[nH]c2ccccc12)NC(=O)[C@H](NC(=O)[C@@H](CC(=O)O)NC(=O)[C@@H](CCCNC(=N)N)NC(=O)[C@@H](CC(C)C)NC(=O)[C@@H](Cc1c[nH]c2ccccc12)NC(=O)[C@@H](CO)NC(=O)CNC(=O)[C@H](N)CO)C(C)C)C(=O)N[C@H](CS)C(=O)N[C@@H](C(=O)N[C@@H](C(=O)N[C@H](CC(C)C)C(=O)N[C@@H](C(=O)N[C@H](CC(=O)O)C(=O)N[C@H](Cc1ccccc1)C(=O)N[C@H](CCCCN)C(=O)N[C@@H](C(=O)N[C@H](Cc1c[nH]c2ccccc12)C(=O)N[C@H](CC(C)C)C(=O)N[C@H](CCC(N)=O)C(=O)N[C@H](CO)C(=O)N[C@H](CCCCN)C(=O)N[C@H](CC(C)C)C(N)=O)[C@H](C)O)[C@H](C)O)C(C)C)[C@H](C)O [AH-D peptide] | neither the AH-D peptide nor the NH-D peptide has cytotoxicity | did not exhibit cytotoxicity | neither the AH-D peptide nor the NH-D peptide has cytotoxicity | did not exhibit cytotoxicity | –
CC(C)C[C@@H](NC(=O)[C@@H](CCCCN)NC(=O)[C@@H](CO)NC(=O)[C@@H](CCC(N)=O)NC(=O)[C@@H](CC(C)C)NC(=O)[C@@H](Cc1c[nH]c2ccccc12)NC(=O)[C@H](NC(=O)[C@@H](CCCCN)NC(=O)[C@@H](CC(=O)O)NC(=O)[C@@H](CC(=O)O)NC(=O)[C@H](NC(=O)[C@@H](CC(C)C)NC(=O)[C@H](NC(=O)[C@H](NC(=O)[C@@H](CS)NC(=O)[C@@H](CCC(=O)O)NC(=O)[C@@H](Cc1c[nH]c2ccccc12)NC(=O)[C@@H](CC(=O)O)NC(=O)[C@@H](Cc1c[nH]c2ccccc12)NC(=O)[C@@H](CC(=O)O)NC(=O)[C@@H](CC(=O)O)NC(=O)[C@@H](CCCNC(=N)N)NC(=O)[C@@H](CC(C)C)NC(=O)[C@@H](Cc1c[nH]c2ccccc12)NC(=O)[C@@H](CO)NC(=O)CNC(=O)[C@H](N)CO)[C@H](C)O)C(C)C)[C@H](C)O)[C@H](C)O)C(N)=O [NH-D peptide, reference compound] | neither the AH-D peptide nor the NH-D peptide has cytotoxicity | – | neither the AH-D peptide nor the NH-D peptide has cytotoxicity | – | –
biotin-labeled murine PD-1 protein (cat no. 71118, BPS Bioscience) (receptor, UniProt Q02242 25-167, looked up, also called biotin-labeled PD-1 protein) LEVPNGPWRSLTFYPAWLTVSEGANATFTCSLSNWSEDLMLNWNRLSPSNQTEKQAAFCNGLSQPVQDARFQIIQLPNRHDFHMNILDTRRNDSGIYLCGAISLHPKAKIEESPGAELVVTERILETSTRYPSPSPKPEGRFQ | – | – | – | – | binds
